Experiments:
[1] = system: HER3 ECD-sensitized CD4+ Th1 cells; experiment: Sequential screening of HER3 ECD peptide library: HER3 ECD-sensitized CD4+ Th1 restimulated against peptide-pulsed iDCs, IFN-γ ELISA; type: cell-based, human; conditions: for reactivity of CD4+ T cells across donors (IFN-γ secretion): 5-6 subjects with known anti-HER3 ECD reactivity
HLA-DR, DP, DQ = experiment: MHC class II promiscuity of CD4+ Th1 responses (HLA-DR, DP, DQ typing of donors); type: cell-based, human; conditions: DQ subtypes
[2] = Donor # 15107-26, previously sensitized to HER3 ECD
[3] = Donor # 15107-31, previously sensitized to HER3 ECD
[4] = Donor # 15107-38, previously sensitized to HER3 ECD
[5] = Donor # 26113-03, previously sensitized to HER3 ECD
[6] = Donor # 15107-24, previously sensitized to HER3 ECD

Sequence	reactivity of CD4+ T cells across donors (IFN-γ secretion) [1]	reactivity of CD4+ T cells across donors (IFN-γ secretion) ([1]; listed as HER3(451-465))	immunogenic CD4+ HER3 ECD peptide identified [1, 2]	immunogenic CD4+ HER3 ECD peptide identified [1, 3]	immunogenic CD4+ HER3 ECD peptide identified [1, 4]	immunogenic CD4+ HER3 ECD peptide identified [1, 5]	MHC class II promiscuity (HLA-DR, DP, DQ)	reactivity of CD4+ T cells across donors (IFN-γ secretion) ([1]; listed as HER3(56-70))	immunogenic CD4+ HER3 ECD peptide identified [1, 6]	reactivity of CD4+ T cells across donors (IFN-γ secretion) ([1]; listed as HER3(401-415))	reactivity of CD4+ T cells across donors (IFN-γ secretion) ([1]; listed as HER3(416-430))
AGRIYISANRQLCYH [HER3451-465, HER3 ECD MHC class II immunogenic peptide, positions 451-465]	react across most donors	reproducibly identified	✓	✓	✓	✓	promiscuous across HLA-DR, DP, and DQ subtypes				
CEVVMGNLEIVLTGH [HER356-70, HER3 ECD MHC class II immunogenic peptide, positions 56-70]	react across most donors		✓		✓	✓	promiscuous across HLA-DR, DP, and DQ subtypes	reproducibly identified	✓		
SWPPHMHNFSVFSNL [HER3401-415, HER3 ECD MHC class II immunogenic peptide, positions 401-415]	react across most donors		✓			✓	promiscuous across HLA-DR, DP, and DQ subtypes		✓	reproducibly identified	
TTIGGRSLYNRGFSL [HER3416-430, HER3 ECD MHC class II immunogenic peptide, positions 416-430]	react across most donors		✓	✓		✓	promiscuous across HLA-DR, DP, and DQ subtypes		✓		reproducibly identified

From patent US10829538B2, “Identification of immunogenic MHC class II peptides for immune-based therapy” (THE TRUSTEES OF THE UNIVERSITY OF PENNSYLVANIA, priority 2015, dated 2020)
